Consider 11 molecules from BindingDB's records for doi:10.1021/jm970211n (University of Michigan, 1997).

As a reminder, the IC50 is the midpoint of a concentration-inhibition curve. A higher IC50 goes with weaker potency in that assay.

The test in a line: Inhibition of angiotensin I converting enzyme in silico.
Take `O=C(O)CCc1cc(O)c2n(c1=O)[C@H](C(=O)O)CC2`: the IC50 is 31.6 nM. The value for `CC(NC(=O)C1CCCCC1S)C(=O)N1CCCC1C(=O)O` (stereo unspecified) was 10 nM; that for `CC(NP(=O)(O)CCc1ccccc1)C(=O)N1CCCC1C(=O)O` (stereo unspecified) [1-hydroxy-1-phenylethyl-phosphinoylamino]-propionyl-pyrrolidine-2-carboxylic acid] was 25.1 nM; that for `O=C(O)Cn1c(=O)n2n(c1=O)C(C(=O)O)C=CC2` (stereo unspecified) was 3.16 nM.

Consider `O=C(O)[C@@H]1CC2(CN1C(=O)CP(=O)(O)CCCCc1ccccc1)SCCS2`, for which the midpoint of inhibition, the IC50, lay at 12.6 nM. The value for `O=C(O)[C@@H]1C=CCn2c(=O)n(CS)c(=O)n21` was 2510 nM.

`O=C(S[C@@H]1CCC[C@@H]1C(=O)N1CCC[C@H]1C(=O)O)c1ccccc1`: the IC50 is 63.1 nM.

Consider `O=C(O)[C@@H]1CCCN1C(=O)[C@@H]1CC[C@H]1S`, for which the IC50 was 158 nM. The value for `CC(NP(=O)(O)O)C(=O)C1CCCC1C(=O)O` (stereo unspecified) was 5.01 nM. The value for `C[C@H](NC(CCC(=O)Nc1ccc(I)cc1)C(=O)O)C(=O)N1CCC[C@H]1C(=O)O` (stereo partly specified) was 0.794 nM; that for `CC1(CS)C(=O)N2CCCC(C(=O)O)N2C1=O` (stereo unspecified) was 3160 nM.
